Results published in US20230340012A1, “NATURAL AND SYNTHETIC COMPOUNDS FOR TREATING CANCER AND OTHER DISEASES” (PACIFIC ARROW LIMITED, priority 2009, published 2023).

System: cancer cells
Experiment: MTT cytotoxic assay of esterification products (Cytotoxicity activity)
Format: cell-based, human
Outline: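 Cytotoxicity was read by MTT (Carmichael method, modified), with cells seeded 24 h ahead of treatment. Sixteen human cancer lines spanning bone, lung, bladder, ovary, colon, pancreas, prostate, skin, mouth, kidney, breast, liver, brain, leukemia and cervix were used. Test samples were acyl chloride esterification products of triterpenes, as mixtures or HPLC-purified compounds.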

[1] = E4A esterified with 2-propenoyl chloride (Ppe = Propenoyl), compounds isolated with HPLC
[2] = E4A esterified with Propionyl chloride (Ppi = Propionyl), compounds isolated with HPLC
[3] = E4A esterified with benzoyl chloride (Ben = benzoyl), compounds isolated with HPLC
[4] = esterification products of core compound E4A with (2E)-2-pentenoyl chloride (2pe = 2-pentenoyl)
[5] = esterification products of core compound E4A with Butyryl chloride (But = Butyryl)
[6] = esterification products of core compound E4A with Decanoyl chloride (Dec = Decanoyl)
[7] = esterification products of core compound E4A with Isobutyryl chloride (Iso = Isobutyryl)
[8] = esterification products of core compound E4A with Myristoyl chloride (Myr = Myristoyl)
[9] = esterification products of core compound E4A with Octanoyl chloride (Oct = Octanoyl)
[10] = esterification products isolated with HPLC, graded strong / moderate / weak

Structure (SMILES)	Cytotoxicity activity [10]	other results
CC1(C)CC2C3=CCC4C5(C)CCC(O)C(C)(COC(=O)c6ccccc6)C5CCC4(C)C3(C)CC(O)C2(CO)C(OC(=O)c2ccccc2)C1O (centres unmarked) [Compound K30]	–	Cytotoxicity activity [1]: moderate; Cytotoxicity activity [2]: moderate; Cytotoxicity activity [3]: moderate; Cytotoxicity activity [4]: moderate; Cytotoxicity activity [5]: moderate; Cytotoxicity activity [6]: moderate; Cytotoxicity activity [7]: moderate; Cytotoxicity activity [8]: moderate; Cytotoxicity activity [9]: moderate
CC1(C)CC2C3=CCC4C5(C)CCC(OC(=O)c6ccccc6)C(C)(COC(=O)c6ccccc6)C5CCC4(C)C3(C)CC(O)C2(CO)C(O)C1O (centres unmarked) [Compound K31]	–	Cytotoxicity activity [1]: moderate; Cytotoxicity activity [2]: moderate; Cytotoxicity activity [3]: moderate; Cytotoxicity activity [4]: moderate; Cytotoxicity activity [5]: moderate; Cytotoxicity activity [6]: moderate; Cytotoxicity activity [7]: moderate; Cytotoxicity activity [8]: moderate; Cytotoxicity activity [9]: moderate
CC1(C)CC2C3=CCC4C5(C)CCC(O)C(C)(COC(=O)c6ccccc6)C5CCC4(C)C3(C)CC(OC(=O)c3ccccc3)C2(CO)C(O)C1O (centres unmarked) [Compound K32]	–	Cytotoxicity activity [1]: moderate; Cytotoxicity activity [2]: moderate; Cytotoxicity activity [3]: moderate; Cytotoxicity activity [4]: moderate; Cytotoxicity activity [5]: moderate; Cytotoxicity activity [6]: moderate; Cytotoxicity activity [7]: moderate; Cytotoxicity activity [8]: moderate; Cytotoxicity activity [9]: moderate
C/C=C(\C)C(=O)OC[C@]1(C)C2CC[C@]3(C)C(CC=C4C5CC(C)(C)[C@@H](O)[C@H](O)[C@]5(COC(=O)C=C(C)C)[C@H](O)C[C@]43C)[C@@]2(C)CC[C@@H]1O (stereo partly drawn) [E4A-Tig-Sen-1]	–	Cytotoxicity activity (esterification products of E4A—Tig—N with senecioyl chloride): strong
CC=C(C)C(=O)OCC1(C)C(O)CCC2(C)C1CCC1(C)C2CC=C2C3CC(C)(C)C(O)C(O)C3(COC(C)=O)C(O)CC21C (centres unmarked) [Tig—Acy—1]	strong	–
CC=C(C)C(=O)OCC1(C)C(O)CCC2(C)C1CCC1(C)C2CC=C2C3CC(C)(C)C(OC(C)=O)C(O)C3(COC(C)=O)C(O)CC21C (centres unmarked) [Tig—Acy—2]	moderate	–
CC=C(C)C(=O)OCC1(C)C(O)CCC2(C)C1CCC1(C)C2CC=C2C3CC(C)(C)C(O)C(OC(C)=O)C3(COC(C)=O)C(O)CC21C (centres unmarked) [Tig—Acy—3]	moderate	–
CC=C(C)C(=O)OCC1(C)C(OC(C)=O)CCC2(C)C1CCC1(C)C2CC=C2C3CC(C)(C)C(O)C(O)C3(COC(C)=O)C(O)CC21C (centres unmarked) [Tig—Acy—4]	moderate	–
CC=C(C)C(=O)OCC1(C)C(O)CCC2(C)C1CCC1(C)C2CC=C2C3CC(C)(C)C(OC(C)=O)C(O)C3(CO)C(O)CC21C (centres unmarked) [Tig—Acy—5]	moderate	–
CC=C(C)C(=O)OCC1(C)C(O)CCC2(C)C1CCC1(C)C2CC=C2C3CC(C)(C)C(O)C(OC(C)=O)C3(CO)C(O)CC21C (centres unmarked) [Tig—Acy—6]	moderate	–
CC=C(C)C(=O)OCC1(C)C(O)CCC2(C)C1CCC1(C)C2CC=C2C3CC(C)(C)C(O)C(O)C3(COC(=O)C(C)=CC)C(O)CC21C (centres unmarked) [Tig—Ang—1]	strong	–
CC=C(C)C(=O)OCC1(C)C(O)CCC2(C)C1CCC1(C)C2CC=C2C3CC(C)(C)C(OC(=O)C(C)=CC)C(O)C3(COC(=O)C(C)=CC)C(O)CC21C (centres unmarked) [Tig—Ang—2]	moderate	–
CC=C(C)C(=O)OCC1(C)C(O)CCC2(C)C1CCC1(C)C2CC=C2C3CC(C)(C)C(O)C(OC(=O)C(C)=CC)C3(COC(=O)C(C)=CC)C(O)CC21C (centres unmarked) [Tig—Ang—3]	moderate	–
CC=C(C)C(=O)OCC1(C)C(OC(=O)C(C)=CC)CCC2(C)C1CCC1(C)C2CC=C2C3CC(C)(C)C(O)C(O)C3(COC(=O)C(C)=CC)C(O)CC21C (centres unmarked) [Tig—Ang—4]	moderate	–
CC=C(C)C(=O)OCC1(C)C(O)CCC2(C)C1CCC1(C)C2CC=C2C3CC(C)(C)C(OC(=O)C(C)=CC)C(O)C3(CO)C(O)CC21C (centres unmarked) [Tig—Ang—5]	moderate	–
CC=C(C)C(=O)OCC1(C)C(O)CCC2(C)C1CCC1(C)C2CC=C2C3CC(C)(C)C(O)C(OC(=O)C(C)=CC)C3(CO)C(O)CC21C (centres unmarked) [Tig—Ang—6]	moderate	–

Structure (SMILES)	Cytotoxicity activity [10]	other results
CC=C(C)C(=O)OCC1(C)C(O)CCC2(C)C1CCC1(C)C2CC=C2C3CC(C)(C)C(O)C(O)C3(COC(=O)C=Cc3ccccc3)C(O)CC21C (centres unmarked) [Tig—Cin—1]	strong	–
CC=C(C)C(=O)OCC1(C)C(O)CCC2(C)C1CCC1(C)C2CC=C2C3CC(C)(C)C(OC(=O)C=Cc4ccccc4)C(O)C3(COC(=O)C=Cc3ccccc3)C(O)CC21C (centres unmarked) [Tig—Cin—2]	moderate	–
CC=C(C)C(=O)OCC1(C)C(O)CCC2(C)C1CCC1(C)C2CC=C2C3CC(C)(C)C(O)C(OC(=O)C=Cc4ccccc4)C3(COC(=O)C=Cc3ccccc3)C(O)CC21C (centres unmarked) [Tig—Cin—3]	moderate	–
CC=C(C)C(=O)OCC1(C)C(OC(=O)C=Cc2ccccc2)CCC2(C)C1CCC1(C)C2CC=C2C3CC(C)(C)C(O)C(O)C3(COC(=O)C=Cc3ccccc3)C(O)CC21C (centres unmarked) [Tig—Cin—4]	moderate	–
CC=C(C)C(=O)OCC1(C)C(O)CCC2(C)C1CCC1(C)C2CC=C2C3CC(C)(C)C(OC(=O)C=Cc4ccccc4)C(O)C3(CO)C(O)CC21C (centres unmarked) [Tig—Cin—5]	moderate	–
CC=C(C)C(=O)OCC1(C)C(O)CCC2(C)C1CCC1(C)C2CC=C2C3CC(C)(C)C(O)C(OC(=O)C=Cc4ccccc4)C3(CO)C(O)CC21C (centres unmarked) [Tig—Cin—6]	moderate	–
CC=CC(=O)OCC12C(O)CC3(C)C(=CCC4C5(C)CCC(O)C(C)(COC(=O)C(C)=CC)C5CCC43C)C1CC(C)(C)C(O)C2O (centres unmarked) [Tig—Cro—1]	strong	–
CC=CC(=O)OCC12C(O)CC3(C)C(=CCC4C5(C)CCC(O)C(C)(COC(=O)C(C)=CC)C5CCC43C)C1CC(C)(C)C(OC(=O)C=CC)C2O (centres unmarked) [Tig—Cro—2]	moderate	–
CC=CC(=O)OCC12C(O)CC3(C)C(=CCC4C5(C)CCC(O)C(C)(COC(=O)C(C)=CC)C5CCC43C)C1CC(C)(C)C(O)C2OC(=O)C=CC (centres unmarked) [Tig—Cro—3]	moderate	–
CC=CC(=O)OCC12C(O)CC3(C)C(=CCC4C5(C)CCC(OC(=O)C=CC)C(C)(COC(=O)C(C)=CC)C5CCC43C)C1CC(C)(C)C(O)C2O (centres unmarked) [Tig—Cro—4]	moderate	–
CC=CC(=O)OC1C(O)C2(CO)C(O)CC3(C)C(=CCC4C5(C)CCC(O)C(C)(COC(=O)C(C)=CC)C5CCC43C)C2CC1(C)C (centres unmarked) [Tig—Cro—5]	moderate	–
CC=CC(=O)OC1C(O)C(C)(C)CC2C3=CCC4C5(C)CCC(O)C(C)(COC(=O)C(C)=CC)C5CCC4(C)C3(C)CC(O)C21CO (centres unmarked) [Tig—Cro—6]	moderate	–
CC=C(C)C(=O)OCC1(C)C(O)CCC2(C)C1CCC1(C)C2CC=C2C3CC(C)(C)C(O)C(O)C3(COC(=O)C(CC)CC)C(O)CC21C (centres unmarked) [Tig—Eth—1]	strong	–
CC=C(C)C(=O)OCC1(C)C(O)CCC2(C)C1CCC1(C)C2CC=C2C3CC(C)(C)C(OC(=O)C(CC)CC)C(O)C3(COC(=O)C(CC)CC)C(O)CC21C (centres unmarked) [Tig—Eth—2]	moderate	–
CC=C(C)C(=O)OCC1(C)C(O)CCC2(C)C1CCC1(C)C2CC=C2C3CC(C)(C)C(O)C(OC(=O)C(CC)CC)C3(COC(=O)C(CC)CC)C(O)CC21C (centres unmarked) [Tig—Eth—3]	moderate	–
CC=C(C)C(=O)OCC1(C)C(O)CCC2(C)C1CCC1(C)C2CC=C2C3CC(C)(C)C(OC(=O)C(CC)CC)C(O)C3(CO)C(O)CC21C (centres unmarked) [Tig—Eth—5]	moderate	–
